# Read-outs that look alike come from different tables or passages of the source.
# Assays:
# [1] = test system: THP-1 cells; experiment: Resazurin (alamarBlue) cell viability assay in differentiated THP-1 cells; assay type: cell-based, human; settings: footnote marks: * mild, ** marked reduction in viability, in % (unit assumed)
# Protocol: (§1) The ability to inhibit TNF-α production was analyzed in THP-1 cells, a human acute monocytic leukemia cell line that is widely used to assess monocyte functions. In order to induce maturation, THP-1 cells were plated at 1×10^6 cells/ml and pretreated with 5 nM PMA for two days. Differentiated THP-1 cells were pretreated with various concentrations of NPI-1302a-3 or its analogs for 1 hour, followed by a 4 hour incubation with 1 μg of LPS (Sigma, St. Louse, Mo.). The P38 inhibitor (10 μM, SB 203580; Sigma, St. Louis, Mo.) was used as a positive control. Supernatants were collected and stored at −80° C. until assayed for TNF-α activity. A resazurin assay was performed for each analog to evaluate the effects on cell metabolism and viability.
# A preparation of the dye resazurin, commercially-available as alamarBlue™ (Biosource International Inc.; 820 Flynn Road, Camarillo, Calif.), was used for the cytotoxicity assays described herein. The assays and experiments described herein were conducted in substantially the same manner as described in the scientific literature, for example, in Magnani, E and Bettini, E., “Resazurin detection of energy metabolism changes in serum-starved PC12 cells and of neuroprotective agent effect,” Brain Res Protoc., Jul. 5, 2000(3):266-72 and in Nociari M. M., Shalev A., Benias P., and Russo C. J, “A novel one-step, highly sensitive fluorometric assay to evaluate cell-mediated cytotoxicity,” Immunol.Methods 213, 157-167 (1998), see also U.S. Pat. No. 5,501,959, entitled “Antibiotic and Cytotoxic Drug Susceptibility Assays using Resazurin and Poising Agents,” the entire specification of which is incorporated herein by reference.
# [2] = test system: TNF-α synthesis of THP-1 cells; experiment: LPS-induced TNF-α production in PMA-differentiated THP-1 cells (FLISA); assay type: cell-based, human; settings: THP-1, LPS
# Protocol: as §1
# To detect the presence of human TNFα, fluorescent linked immunosorbent assay or FLISA was developed and optimized. 100 μl of beads (6 μm, Spherotech) coated with goat anit-mouse IgG (1 mg/ml, R and D Systems) were mixed with 4 μl of biotin-anti-hTNFα mouse IgG (0.1 mg/ml, R and D Systems) and 2 μl of FMAT Blue-streptavidin (0.1 mg/ml, Applied Biosystems). 50 μl of the mixtures was combined with 50 μl of the supernatant isolated from treated THP-1 cells and added to the black wall FLISA plates (Applied Biosystems) and incubated overnight. The plates were scanned at factory set PMT setting, and the values were plotted and analyzed by Applied Biosystems software.
# [3] = test system: iNOS (inducible nitric oxide synthase); settings: cited from earlier work
# [4] = test system: COX-2 (cyclooxygenase-2); settings: cited from earlier work
# [5] = test system: IL-6 synthesis; experiment: SAC-induced IL-6 synthesis, RAW 264.7 macrophage cells; assay type: cell-based, Murine
# Protocol: (§2) Murine macrophage cells RAW 264.7 (1×10^6/ml) were pretreated for 30-60 minutes with varying doses of the synthetic compound of Formula (I), the synthetic compound of formula (I) and a panel of analogs (diluted in 0.5% DMSO) prior to stimulation with various agents such as lipopolysaccharide (LPS) or a gram positive agent like heat-killed Staph aureus (SAC). Supernatants collected over a 72-hour period will be assayed for the levels of TNF-α, IL-1, IL-6, IL-10, IL-12 and other cytokines either by elisa or bioassay. Additional studies to evaluate the effects of the synthetic compound of Formulae (I), (II), (IIA) and (IIB) on cytokine signaling pathways such as, for example, Caspase-activity (Nr-1, Nr.3), transcription factors such as NF-kB, MAP-kinase activity (p38, ERK and JNK) will also be performed.
# [6] = test system: TNF-α production; settings: approximately 0.1 to approximately 1.0 microgram/ml for 48 hours; cited from earlier work
# [7] = test system: IL-1 production; settings: approximately 0.1 to approximately 1.0 microgram/ml for 48 hours; cited from earlier work
# [8] = test system: IL-6; settings: same conditions; cited from earlier work
# [9] = test system: IFN-γ (interferon-gamma); settings: same conditions; cited from earlier work
# [10] = test system: silicosis; settings: mice; cited from earlier work
# [11] = test system: cirrhosis; settings: mice; cited from earlier work
# [12] = test system: mice; settings: cited from earlier work
# [13] = test system: rat; settings: cited from earlier work
# [14] = test system: TNF-α synthesis; experiment: Inhibition of LPS-induced TNF-α synthesis, RAW 264.7 macrophage cells; assay type: cell-based, Murine; settings: for TNF-α: Table 7, LPS alone 88
# Protocol: as §2
# [15] = test system: TNF-α synthesis; experiment: Inhibition of SAC-induced TNF-α synthesis, RAW 264.7 macrophage cells; assay type: cell-based, Murine; settings: SAC alone 375, unstimulated 5
# Protocol: as §2
# [16] = test system: IL-1 synthesis; experiment: Inhibition of SAC-induced IL-1 synthesis, RAW 264.7 macrophage cells; assay type: cell-based, Murine; settings: for IL-1α: Table 6, SAC-induced, SAC alone 650, unstimulated 0
# Protocol: as §2
# [17] = test system: LPS/D-Gal administration; experiment: Mortality after LPS/D-Gal administration; assay type: in vivo; settings: i.p., TTL3 45 minutes prior to LPS
structure (smiles),measurement,setting,value
C=CC1(C)CCC=C2C1CCC1C(C)(CC=O)CCCC21C (centres unmarked) [CC-3-14],Cell Viability,[1]; 100 ng/ml,100
same,Cell Viability,[1]; 1 ug/ml,100
same,Percent TNF-α Inhibition,[2]; 100 ng/ml,25%
same,Percent TNF-α Inhibition,[2]; 1 ug/ml,30%
C=CC1(C)CCC=C2C1CCC1C(C)(C(=O)[O-])CCCC21C.[Na+] (centres unmarked) [TTL-1Na],Cell Viability,[1]; 1 ug/ml,90*
same,Cell Viability,[1]; 10 ug/ml,80*
same,Percent TNF-α Inhibition,[2]; 1 ug/ml,40%
same,Percent TNF-α Inhibition,[2]; 10 ug/ml,50%
C=CC1(C)CCC=C2C1CCC1C(C)(C(=O)NCCN)CCCC21C (centres unmarked) [LT-1-74],Cell Viability,[1]; 100 ng/ml,100
same,Cell Viability,[1]; 1 ug/ml,100
same,Percent TNF-α Inhibition,[2]; 100 ng/ml,25%
same,Percent TNF-α Inhibition,[2]; 1 ug/ml,30%
C=CC1(C)CCC=C2C1CCC1C(C)(COC(=O)CCC(=O)O)CCCC21C (centres unmarked) [CC-3-17],Cell Viability,[1]; 100 ng/ml,90*
same,Cell Viability,[1]; 1 ug/ml,85*
same,Cell Viability,[1]; 10 ug/ml,75**
same,Percent TNF-α Inhibition,[2]; 100 ng/ml,10%
same,Percent TNF-α Inhibition,[2]; 1 ug/ml,20%
same,Percent TNF-α Inhibition,[2]; 10 ug/ml,25%
C=CC1(C)CCC=C2C1CCC1C(C)(CCNCCN)CCCC21C (racemic) [CC-3-15 ra],Cell Viability,[1]; 1 ug/ml,100
same,Cell Viability,[1]; 10 ug/ml,100
same,Percent TNF-α Inhibition,[2]; 1 ug/ml,25%
same,Percent TNF-α Inhibition,[2]; 10 ug/ml,65%
C=CC1(C)CCC=C2C1CCC1C(C)(C(=O)N3CCOCC3)CCCC21C (centres unmarked) [LT-1-85],Cell Viability,[1]; 100 ng/ml,100
same,Cell Viability,[1]; 1 ug/ml,100
same,Cell Viability,[1]; 10 ug/ml,80*
same,Percent TNF-α Inhibition,[2]; 100 ng/ml,10%
same,Percent TNF-α Inhibition,[2]; 1 ug/ml,45%
same,Percent TNF-α Inhibition,[2]; 10 ug/ml,55%
"CC1(C)CC[C@]2(C(=O)O)CC[C@]3(C)[C@H](C(=O)C=C4[C@@]5(C)C=C(C#N)C(=O)C(C)(C)[C@@H]5CC[C@]43C)[C@@H]2C1 [Compound 54, 2-cyano-3,12-dioxoolean-1,9-dien-28-oic acid]",fold more active than any other known triterpenoid in suppressing iNOS,[3],500 fold
same,fold more active than any other known triterpenoid in suppressing COX-2,[4],500 fold
C=CC1(C)CCC=C2C1CCC1C(C)(C(=O)[O-])CCCC21C.[K+] (centres unmarked) [TTL-1K],Percent TNF-α Inhibition,[2]; 100 ng/ml,10%
same,Percent TNF-α Inhibition,[2]; 1 ug/ml,50%
C=CC1(C)CCC=C2C1CCC1C(C)(COC(C)=O)CCCC21C (centres unmarked) [LT-1-46],Cell Viability,[1]; 100 ng/ml,100
same,Cell Viability,[1]; 1 ug/ml,90*
same,Cell Viability,[1]; 10 ug/ml,90*
same,Percent TNF-α Inhibition,[2]; 100 ng/ml,0%
same,Percent TNF-α Inhibition,[2]; 1 ug/ml,0%
same,Percent TNF-α Inhibition,[2]; 10 ug/ml,20%
C=CC1(C)CCC=C2C1CCC1C(C)(C(=O)N(CCO)CCO)CCCC21C (centres unmarked) [LT-1-78],Cell Viability,[1]; 100 ng/ml,100
same,Cell Viability,[1]; 1 ug/ml,100
same,Cell Viability,[1]; 10 ug/ml,100
same,Percent TNF-α Inhibition,[2]; 100 ng/ml,0%
same,Percent TNF-α Inhibition,[2]; 1 ug/ml,0%
same,Percent TNF-α Inhibition,[2]; 10 ug/ml,20%
C=CC1(C)CCC=C2C1CCC1C(C)(C=O)CCCC21C (centres unmarked) [CC-3-09],Cell Viability,[1]; 100 ng/ml,100
same,Cell Viability,[1]; 1 ug/ml,100
same,Cell Viability,[1]; 10 ug/ml,100
same,Percent TNF-α Inhibition,[2]; 100 ng/ml,0%
same,Percent TNF-α Inhibition,[2]; 1 ug/ml,0%
same,Percent TNF-α Inhibition,[2]; 10 ug/ml,10%
"C=C[C@@]1(C)CC=C2[C@@H](CC[C@@H]3[C@](C)(C(=O)O)CCC[C@@]23C)C1 [Formula (I), acanthoic acid]",inhibition of IL-6 synthesis,[5],neither analog TTL1 nor TTL3 significantly inhibited IL-6 synthesis
same,inhibition of the TNF-α production,[6],approximately 90%
same,inhibition of the IL-1 production,[7],approximately 90%
same,production of IL-6,[8],not affected
same,production of IFN-γ,[9],not affected
same,fibrotic granulomas (histologic analysis),[10],substantial reduction of fibrotic granulomas
same,cirrotic liver cells (histologic analysis),[11],remarkable recovery of the cirrotic liver cells
same,toxicity,[12],minimal toxicity
same,toxicity,[12]; listed as 1,very little toxicity
same,LD,[12]; orally,> 300 mg/100 g of body weight
same,minimum lethal dose (MLD),"[13]; rat, in vivo",1000 mg/kg
same,toxicity,[13]; rats,minimal toxicity
C=CC1(C)CCC=C2C1CCC1C(C)(CNCCN)CCCC21C (racemic) [CC-3-13 ra],Cell Viability,[1]; 100 ng/ml,95*
same,Cell Viability,[1]; 1 ug/ml,75**
same,Cell Viability,[1]; 10 ug/ml,20**
same,Percent TNF-α Inhibition,[2]; 100 ng/ml,10%
same,Percent TNF-α Inhibition,[2]; 1 ug/ml,50%
same,Percent TNF-α Inhibition,[2]; 10 ug/ml,95%
C=CC1(C)CCC=C2C1CCC1C(C)(C(=O)OC)CCCC21C (centres unmarked) [TTL3],TNF-α,[14]; LPS (1 μg/ml) + TTL3 1.0 μg/ml,13 ng/mL
same,TNF-α,[14]; LPS (1 μg/ml) + TTL3 1 × 10^2 μg/ml,4 ng/mL
same,TNF-α,[14]; LPS (1 μg/ml) + TTL3 1 × 10^−4 μg/ml,15 ng/mL
same,TNF-α,[14]; LPS (1 μg/ml) + TTL3 1 × 10^−5 μg/ml,10 ng/mL
same,TNF-α,[14]; LPS (1 μg/ml) + TTL3 1 × 10^−6 μg/ml,18 ng/mL
same,TNF-α,[14]; LPS (1 μg/ml) + TTL3 1 × 10^−7 μg/ml,41 ng/mL
same,times greater activity than TTL1 (inhibiting TNF-α synthesis),[14]; stimulus not given,approximately 100 times
same,TNF-α,"[15]; Table 5, TTL3 0.001 μg/ml",80 ng/mL
same,TNF-α,"[15]; Table 5, TTL3 0.01 μg/ml",75 ng/mL
same,TNF-α,"[15]; Table 5, TTL3 0.1 μg/ml",85 ng/mL
same,TNF-α,"[15]; Table 5, TTL3 1 μg/ml",60 ng/mL
same,TNF-α,"[15]; Table 5, TTL3 10 μg/ml",80 ng/mL
same,IL-1α,[16]; TTL3 0.001 μg/ml,200 pg/mL
same,IL-1α,[16]; TTL3 0.01 μg/ml,220 pg/mL
same,IL-1α,[16]; TTL3 0.1 μg/ml,190 pg/mL
same,IL-1α,[16]; TTL3 1 μg/ml,180 pg/mL
same,IL-1α,[16]; TTL3 10 μg/ml,170 pg/mL
same,times greater activity than TTL1 (inhibiting IL-1 synthesis),[16]; stimulus not given,approximately 100 times
same,inhibition of IL-6 synthesis,[5],neither analog TTL1 nor TTL3 significantly inhibited IL-6 synthesis
same,Mortality 24 hours,"[17]; LPS/D-Gal alone 10/10, + DMSO 8/10",2/10
same,Mortality 48 hours,"[17]; LPS/D-Gal alone 10/10, + DMSO 9/10",2/10
same,Cell Viability,[1]; 100 ng/ml,100
same,Cell Viability,[1]; 1 ug/ml,100
same,Cell Viability,[1]; 10 ug/ml,100
same,Percent TNF-α Inhibition,[2]; 100 ng/ml,30%
same,Percent TNF-α Inhibition,[2]; 1 ug/ml,55%
same,Percent TNF-α Inhibition,[2]; 10 ug/ml,70%
C=C[C@@]1(C)CCC=C2[C@H]1CC[C@@H]1[C@](C)(C(=O)O)CCC[C@@]21C [TTL1],inhibition of IL-6 synthesis,[5],neither analog TTL1 nor TTL3 significantly inhibited IL-6 synthesis
same,Cell Viability,[1]; 100 ng/ml,100
same,Cell Viability,[1]; 1 ug/ml,100
same,inhibition at 0.1 µg/mL,"[2]; Homo sapiens, 100 ng/ml, read-out: Percent TNF-α Inhibition",10%
same,inhibition at 1 µg/mL,"[2]; Homo sapiens, 1 ug/ml, read-out: Percent TNF-α Inhibition",30%
same,inhibition at 10 µg/mL,"[2]; Homo sapiens, 10 ug/ml, read-out: Percent TNF-α Inhibition",50%
